Consider nine compounds from paper PMC6736730 (Biochemistry, 2019).

The target in assay [1] is T1, msAPAH (Marinobacter subterrani, UniProt A0A0J7JFD7). The experiment in a line: Hydrolysis of acetyllysine substrates. The class given is biochemical. Particulars: acetyllysine (Aly) and MSH2-based peptide substrates; LC-MS assay.
Assay [2] deals with T1, msAPAH. The experiment in a line: Isothermal titration calorimetry. Conditions: ITC, 25 °C; inhibitor 7 with 5% (v/v) DMSO. The class given is binding.
Assay [3] concerns the target T1, msAPAH. The experiment in a line: Steady-state kinetics of acetylpolyamine hydrolysis. The class given is biochemical. Conditions: 25° C, pH 7.75, triplicate; N^8-acetylspermidine value at 0 mM KCl.
Assay [4] deals with T1, msAPAH. The experiment in a line: Inhibitory activity measurements. The class given is biochemical.

As to `CC(=O)NCCCC[C@H](N)C(N)=O` [Aly-NH2], at msAPAH [1], the “catalytic activity for hydrolysis” value is listed as “No significant catalytic activity”.
Regarding `CN(C)c1ccc(C(=O)NCCCCCCC(=O)NO)cc1` [Inhibitor 7, reference compound], the “dissociation constant / enthalpogram fit (in words)” value on msAPAH [2] is “could not be fit to binding curves”.
A word on the Km: it is the substrate concentration at which the rate is half of its maximum. Take `CC(=O)NCCCCN` [acetylputrescine]: on msAPAH [3], the Michaelis constant (Km) was 44 ± 10 µM.
For the compound `CC(=O)NCCCCCN` [acetylcadaverine], the Km at msAPAH [3] is 800 ± 300 µM.
By IC50 is commonly meant the concentration that inhibits the measured activity by half. High values mean weaker potency, low ones greater potency. As to `NCCCNCCCCCS` [Inhibitor 3, 5-[(3-aminopropyl)amino]pentane-1-thiol], the “dissociation constant / enthalpogram fit (in words)” value at msAPAH [2] is listed as “nanomolar dissociation constant”. This compound came in with an IC50 at msAPAH [4] of 160 µM.
The matching figures for `NCCCNCCCCCC(=O)NO` [Inhibitor 6, 6-[(3-aminopropyl)amino]-N-hydroxyhexanamide]: “micromolar dissociation constants” and 470 µM.
`NCCCCCC(=O)NO` [Inhibitor 4, 6-amino-N-hydroxyhexanamide] had an IC50 on msAPAH [4] of 410 µM.
Take `CC(=O)NCCCNCCCCNCCCN` [acetylspermine]: the Michaelis constant (Km) at msAPAH [3] amounted to 1300 ± 600 µM.
For the compound `NCCCCCCCC(=O)NO` [Inhibitor 5, 8-amino-N-hydroxyoctanamide], the concentration for half-maximal inhibition (IC50) against msAPAH [4] was 380 µM.
